Experimental data: ChEMBL document CHEMBL1146703, “Mannopeptimycin esters and carbonates, potent antibiotic agents against drug-resistant bacteria” (2004)
Values after ≈ are worked out from the molar mass of the structure shown.

Key:
[1] = test system: Enterococcus faecalis; experiment: Antibacterial activity against Enterococcus faecalis; assay type: functional
[2] = test system: Escherichia coli; experiment: Antibacterial activity against Escherichia coli at </=64 ug/mL; No activity; assay type: functional, organism-based
[3] = test system: Staphylococcus aureus; experiment: Antibacterial activity against Staphylococcus aureus; assay type: functional
[4] = test system: Staphylococcus aureus; experiment: Antibacterial activity against Staphylococcus aureus; Range is 4-8; assay type: functional
[5] = test system: Enterococcus faecalis; experiment: Antibacterial activity against Enterococcus faecalis; Range is 16-32; assay type: functional
[6] = test system: Mus musculus; experiment: Antibacterial activity against Staphylococcus aureus infection in mouse after i.v. administration (Vancomycin, ED50= 1.0 mg/kg ); assay type: functional; conditions: route intravenous
[7] = test system: Staphylococcus aureus; experiment: Antibacterial activity against Staphylococcus aureus; Range is 1-2; assay type: functional

With `C[C@@H](c1ccccc1)[C@@H]1NC(=O)CNC(=O)[C@H](COC(=O)C(c2ccccc2)c2ccccc2)NC(=O)[C@@H]([C@@H](O)[C@@H]2CNC(N)N2[C@H]2O[C@H](CO)[C@@H](O)[C@H](O)[C@@H]2O)NC(=O)[C@H]([C@@H](O)[C@@H]2CNC(N)N2)NC(=O)[C@@H](Cc2ccc(O[C@H]3O[C@H](CO)[C@@H](O[C@H]4O[C@H](CO)[C@@H](O)[C@H](O)[C@@H]4O)[C@H](O)[C@@H]3O)cc2)NC1=O` (stereo partly drawn) the MIC [1] was greater than 64 µg/mL, the MIC [2] was “No activity” and the MIC [3] was greater than 64 µg/mL.

For `CCCCCC(=O)OC[C@H]1O[C@H](Oc2ccc(C[C@H]3NC(=O)[C@H]([C@@H](C)c4ccccc4)NC(=O)CNC(=O)[C@H](CO)NC(=O)[C@@H]([C@@H](O)[C@@H]4CNC(N)N4[C@H]4O[C@H](CO)[C@@H](O)[C@H](O)[C@@H]4O)NC(=O)[C@H]([C@@H](O)[C@@H]4CNC(N)N4)NC3=O)cc2)[C@@H](O)[C@@H](O)[C@@H]1O[C@H]1O[C@H](CO)[C@@H](O)[C@H](O)[C@@H]1O` (stereo partly drawn), the MIC [4] was 8 µg/mL (≈ 5.72 µM), the MIC [2] was “No activity” and the MIC [5] was 32 µg/mL (≈ 22.9 µM).

For `CC(C)CC(=O)O[C@H]1[C@H](O)[C@H](O)[C@@H](O[C@H]2[C@H](O)[C@H](O)[C@@H](Oc3ccc(C[C@H]4NC(=O)[C@H]([C@@H](C)c5ccccc5)NC(=O)CNC(=O)[C@H](CO)NC(=O)[C@@H]([C@@H](O)[C@@H]5CNC(N)N5[C@H]5O[C@H](CO)[C@@H](O)[C@H](O)[C@@H]5O)NC(=O)[C@H]([C@@H](O)[C@@H]5CNC(N)N5)NC4=O)cc3)O[C@@H]2CO)O[C@@H]1CO` (stereo partly drawn), the MIC [2] was “No activity”, the MIC [5] was 32 µg/mL (≈ 23.1 µM) and the ED50 [6] was 0.6 mg/kg. The MIC [3] was 4 µg/mL (≈ 2.89 µM).

`CCCCCCC(=O)OC[C@@H]1NC(=O)[C@@H]([C@@H](O)[C@@H]2CNC(N)N2[C@H]2O[C@H](CO)[C@@H](O)[C@H](O)[C@@H]2O)NC(=O)[C@H]([C@@H](O)[C@@H]2CNC(N)N2)NC(=O)[C@@H](Cc2ccc(O[C@H]3O[C@H](CO)[C@@H](O[C@H]4O[C@H](CO)[C@@H](O)[C@H](O)[C@@H]4O)[C@H](O)[C@@H]3O)cc2)NC(=O)[C@H]([C@@H](C)c2ccccc2)NC(=O)CNC1=O` (stereo partly drawn) was tested, and the MIC [2] was “No activity”.

For `CCCCCC(=O)OC[C@@H]1NC(=O)[C@@H]([C@@H](O)[C@@H]2CNC(N)N2[C@H]2O[C@H](CO)[C@@H](O)[C@H](O)[C@@H]2O)NC(=O)[C@H]([C@@H](O)[C@@H]2CNC(N)N2)NC(=O)[C@@H](Cc2ccc(O[C@H]3O[C@H](CO)[C@@H](O[C@H]4O[C@H](CO)[C@@H](O)[C@H](O)[C@@H]4O)[C@H](O)[C@@H]3O)cc2)NC(=O)[C@H]([C@@H](C)c2ccccc2)NC(=O)CNC1=O` (stereo partly drawn), the MIC [2] was “No activity”.

For `C[C@@H](c1ccccc1)[C@@H]1NC(=O)CNC(=O)[C@H](CO)NC(=O)[C@@H]([C@@H](O)[C@@H]2CNC(N)N2[C@H]2O[C@H](COC(=O)C(c3ccccc3)c3ccccc3)[C@@H](O)[C@H](O)[C@@H]2O)NC(=O)[C@H]([C@@H](O)[C@@H]2CNC(N)N2)NC(=O)[C@@H](Cc2ccc(O[C@H]3O[C@H](CO)[C@@H](O[C@H]4O[C@H](CO)[C@@H](O)[C@H](O)[C@@H]4O)[C@H](O)[C@@H]3O)cc2)NC1=O` (stereo partly drawn), the MIC [1] was greater than 64 µg/mL, the MIC [2] was “No activity” and the MIC [3] was greater than 64 µg/mL.

`C[C@@H](c1ccccc1)[C@@H]1NC(=O)CNC(=O)[C@H](CO)NC(=O)[C@@H]([C@@H](O)[C@@H]2CNC(N)N2[C@H]2O[C@H](CO)[C@@H](O)[C@H](O)[C@@H]2O)NC(=O)[C@H]([C@@H](O)[C@@H]2CNC(N)N2)NC(=O)[C@@H](Cc2ccc(O[C@H]3O[C@H](COC(=O)CCC4CCCC4)[C@@H](O[C@H]4O[C@H](CO)[C@@H](O)[C@H](O)[C@@H]4O)[C@H](O)[C@@H]3O)cc2)NC1=O` (stereo partly drawn) was tested, and the MIC [1] was 8 µg/mL (≈ 5.62 µM), the MIC [2] was “No activity” and the MIC [3] was 2 µg/mL (≈ 1.4 µM).

`CCCCCC(=O)OC[C@H]1O[C@H](N2C(N)NC[C@H]2[C@H](O)[C@H]2NC(=O)[C@H]([C@@H](O)[C@@H]3CNC(N)N3)NC(=O)[C@@H](Cc3ccc(O[C@H]4O[C@H](CO)[C@@H](O[C@H]5O[C@H](CO)[C@@H](O)[C@H](O)[C@@H]5O)[C@H](O)[C@@H]4O)cc3)NC(=O)[C@H]([C@@H](C)c3ccccc3)NC(=O)CNC(=O)[C@H](CO)NC2=O)[C@@H](O)[C@@H](O)[C@@H]1O` (stereo partly drawn) was tested, and the MIC [1] was greater than 64 µg/mL, the MIC [2] was “No activity” and the MIC [3] was greater than 64 µg/mL.

`C[C@@H](c1ccccc1)[C@@H]1NC(=O)CNC(=O)[C@H](CO)NC(=O)[C@@H]([C@@H](O)[C@@H]2CNC(N)N2[C@H]2O[C@H](COC(=O)CCC3CCCC3)[C@@H](O)[C@H](O)[C@@H]2O)NC(=O)[C@H]([C@@H](O)[C@@H]2CNC(N)N2)NC(=O)[C@@H](Cc2ccc(O[C@H]3O[C@H](CO)[C@@H](O[C@H]4O[C@H](CO)[C@@H](O)[C@H](O)[C@@H]4O)[C@H](O)[C@@H]3O)cc2)NC1=O` (stereo partly drawn) was tested, and the MIC [1] was greater than 64 µg/mL, the MIC [2] was “No activity” and the MIC [3] was greater than 64 µg/mL.

In the case of `CC(C)CC(=O)O[C@@H]1[C@H](O)[C@@H](O[C@H]2[C@H](O)[C@H](O)[C@@H](Oc3ccc(C[C@H]4NC(=O)[C@H]([C@@H](C)c5ccccc5)NC(=O)CNC(=O)[C@H](CO)NC(=O)[C@@H]([C@@H](O)[C@@H]5CNC(N)N5[C@H]5O[C@H](CO)[C@@H](O)[C@H](O)[C@@H]5O)NC(=O)[C@H]([C@@H](O)[C@@H]5CNC(N)N5)NC4=O)cc3)O[C@@H]2CO)O[C@H](CO)[C@H]1O` (stereo partly drawn), the MIC [4] is reported as 8 µg/mL (≈ 5.78 µM), the MIC [1] is reported as 64 µg/mL (≈ 46.3 µM) and the MIC [2] is reported as “No activity”. For the same compound, the ED50 [6] was 2.6 mg/kg.

`C[C@@H](c1ccccc1)[C@@H]1NC(=O)CNC(=O)[C@H](COC(=O)Cc2ccccc2)NC(=O)[C@@H]([C@@H](O)[C@@H]2CNC(N)N2[C@H]2O[C@H](CO)[C@@H](O)[C@H](O)[C@@H]2O)NC(=O)[C@H]([C@@H](O)[C@@H]2CNC(N)N2)NC(=O)[C@@H](Cc2ccc(O[C@H]3O[C@H](CO)[C@@H](O[C@H]4O[C@H](CO)[C@@H](O)[C@H](O)[C@@H]4O)[C@H](O)[C@@H]3O)cc2)NC1=O` (stereo partly drawn) was tested, and the MIC [2] was “No activity”.

In the case of `C[C@@H](c1ccccc1)[C@@H]1NC(=O)CNC(=O)[C@H](CO)NC(=O)[C@@H]([C@@H](O)[C@@H]2CNC(N)N2[C@H]2O[C@H](COC(=O)Cc3ccccc3)[C@@H](O)[C@H](O)[C@@H]2O)NC(=O)[C@H]([C@@H](O)[C@@H]2CNC(N)N2)NC(=O)[C@@H](Cc2ccc(O[C@H]3O[C@H](CO)[C@@H](O[C@H]4O[C@H](CO)[C@@H](O)[C@H](O)[C@@H]4O)[C@H](O)[C@@H]3O)cc2)NC1=O` (stereo partly drawn), the MIC [2] is reported as “No activity”.

With `CCCCCCC(=O)OC[C@H]1O[C@H](N2C(N)NC[C@H]2[C@H](O)[C@H]2NC(=O)[C@H]([C@@H](O)[C@@H]3CNC(N)N3)NC(=O)[C@@H](Cc3ccc(O[C@H]4O[C@H](CO)[C@@H](O[C@H]5O[C@H](CO)[C@@H](O)[C@H](O)[C@@H]5O)[C@H](O)[C@@H]4O)cc3)NC(=O)[C@H]([C@@H](C)c3ccccc3)NC(=O)CNC(=O)[C@H](CO)NC2=O)[C@@H](O)[C@@H](O)[C@@H]1O` (stereo partly drawn) the MIC [1] was greater than 64 µg/mL, the MIC [2] was “No activity” and the MIC [3] was greater than 64 µg/mL.

`CCCC(CCC)C(=O)OC[C@@H]1NC(=O)[C@@H]([C@@H](O)[C@@H]2CNC(N)N2[C@H]2O[C@H](CO)[C@@H](O)[C@H](O)[C@@H]2O)NC(=O)[C@H]([C@@H](O)[C@@H]2CNC(N)N2)NC(=O)[C@@H](Cc2ccc(O[C@H]3O[C@H](CO)[C@@H](O[C@H]4O[C@H](CO)[C@@H](O)[C@H](O)[C@@H]4O)[C@H](O)[C@@H]3O)cc2)NC(=O)[C@H]([C@@H](C)c2ccccc2)NC(=O)CNC1=O` (stereo partly drawn) was tested, and the MIC [2] was “No activity”.

For `C[C@@H](c1ccccc1)[C@@H]1NC(=O)CNC(=O)[C@H](COC(=O)CCC2CCCC2)NC(=O)[C@@H]([C@@H](O)[C@@H]2CNC(N)N2[C@H]2O[C@H](CO)[C@@H](O)[C@H](O)[C@@H]2O)NC(=O)[C@H]([C@@H](O)[C@@H]2CNC(N)N2)NC(=O)[C@@H](Cc2ccc(O[C@H]3O[C@H](CO)[C@@H](O[C@H]4O[C@H](CO)[C@@H](O)[C@H](O)[C@@H]4O)[C@H](O)[C@@H]3O)cc2)NC1=O` (stereo partly drawn), the MIC [1] was greater than 64 µg/mL, the MIC [2] was “No activity” and the MIC [3] was greater than 64 µg/mL.

`C[C@@H](c1ccccc1)[C@@H]1NC(=O)CNC(=O)[C@H](CO)NC(=O)[C@@H]([C@@H](O)[C@@H]2CNC(N)N2[C@H]2O[C@H](CO)[C@@H](O)[C@H](O)[C@@H]2O)NC(=O)[C@H]([C@@H](O)[C@@H]2CNC(N)N2)NC(=O)[C@@H](Cc2ccc(O[C@H]3O[C@H](CO)[C@@H](O[C@H]4O[C@H](CO)[C@@H](O)[C@H](O)[C@@H]4O)[C@H](O)[C@@H]3O)cc2)NC1=O` (stereo partly drawn) was tested, and the MIC [1] was greater than 64 µg/mL, the MIC [2] was “No activity” and the MIC [3] was greater than 64 µg/mL.

`CCCC(CCC)C(=O)OC[C@H]1O[C@H](O[C@H]2[C@H](O)[C@H](O)[C@@H](Oc3ccc(C[C@H]4NC(=O)[C@H]([C@@H](C)c5ccccc5)NC(=O)CNC(=O)[C@H](CO)NC(=O)[C@@H]([C@@H](O)[C@@H]5CNC(N)N5[C@H]5O[C@H](CO)[C@@H](O)[C@H](O)[C@@H]5O)NC(=O)[C@H]([C@@H](O)[C@@H]5CNC(N)N5)NC4=O)cc3)O[C@@H]2CO)[C@@H](O)[C@@H](O)[C@@H]1O` (stereo partly drawn) was tested, and the MIC [1] was 4 µg/mL (≈ 2.81 µM), the MIC [7] was 2 µg/mL (≈ 1.4 µM) and the MIC [2] was “No activity”. It also gave an ED50 [6] of 0.52 mg/kg.

For `C[C@@H](c1ccccc1)[C@@H]1NC(=O)CNC(=O)[C@H](CO)NC(=O)[C@@H]([C@@H](O)[C@@H]2CNC(N)N2[C@H]2O[C@H](CO)[C@@H](O)[C@H](O)[C@@H]2O)NC(=O)[C@H]([C@@H](O)[C@@H]2CNC(N)N2)NC(=O)[C@@H](Cc2ccc(O[C@H]3O[C@H](CO)[C@@H](O[C@H]4O[C@H](COC(=O)CCC5CCCC5)[C@@H](O)[C@H](O)[C@@H]4O)[C@H](O)[C@@H]3O)cc2)NC1=O` (stereo partly drawn), the MIC [1] was 4 µg/mL (≈ 2.81 µM), the MIC [2] was “No activity” and the MIC [3] was 1 µg/mL (≈ 0.702 µM).

For `CCCC(CCC)C(=O)OC[C@H]1O[C@H](N2C(N)NC[C@H]2[C@H](O)[C@H]2NC(=O)[C@H]([C@@H](O)[C@@H]3CNC(N)N3)NC(=O)[C@@H](Cc3ccc(O[C@H]4O[C@H](CO)[C@@H](O[C@H]5O[C@H](CO)[C@@H](O)[C@H](O)[C@@H]5O)[C@H](O)[C@@H]4O)cc3)NC(=O)[C@H]([C@@H](C)c3ccccc3)NC(=O)CNC(=O)[C@H](CO)NC2=O)[C@@H](O)[C@@H](O)[C@@H]1O` (stereo partly drawn), the MIC [2] was “No activity”.
